Experimental data published in patent US20190008870A1, “COMPOSITIONS AND METHODS FOR LIPID METABOLISM DISORDER” (JANSFAT BIOTECHNOLOGY CO., LTD., priority 2016, published 2019).

Assays:
mice fed with HFD = assay: Serum and liver lipid levels of mice fed with HFD; assay type: in vivo
Protocol: (§1) During the 2 month experiments, mice fasted for one night before the experiment was changed from a standard diet (STD) to an HFD and then the mice were randomly divided into 13 groups, including a protection group, 2 control and 10 treatment groups. Six mice were used in each group. […] Liver from the protection group supplemented with KMUP-1 HCl (1 mg/kg/day) were used to determine the HMG CoA reductase expression. Each group of mice had free access to drinking water from week 1 to week 14. Tap water was used to normalize mineral nutrition.
Within 2 months, the 3 day food intake average for each animal was measured. The weight gain and plasma lipid levels of each group were determined and compared to the non-treatment control group. […] Agents used in the assays were obtained from Merck & Co. (Kenilworth, N.J., U.S.A.). Triglyceride (TG), total cholesterol, HDL cholesterol and LDL cholesterol in mouse serum were measured by methods used in the clinic. To measure the hepatic Triglyceride, isolated liver were cut into small chips.

HMG CoA reductase = assay: HFD-induced HMG CoA reductase expression in liver; assay type: in vivo, mice
Protocol: as §1, with “In the experiment, C57BL/6J male mice (21-22 g), after fasting, were fed an HFD as a model of hyperlipidemia for 8 weeks. During” for “During”
(§2) For the expression of SR-B1, HMGR, PPARγ and ROCK II, isolated liver tissues were cut into small chips and placed into an extraction buffer (Tris 10 mM, pH 7.0, NaCl 140 mM, PMSF 2 mM, DTT 5 mM, NP-40 0.5%, pepstatin A 0.05 mM and leupeptin 0.2 mM) for hepatic protein extraction, and centrifuged at 20,000×g for 30 minutes. The obtained protein extract was boiled to a ratio of 4:1 with a sample buffer (Tris 100 mM, pH 6.8, glycerol 20%, SDS 4% and bromophenol blue 0.2%). Electrophoresis was performed using 10% SDS-polyacrylamide gel (1 hour, 100 V, 40 mA, 20 μg protein per lane).
(§3) Separated proteins, after 3 repeated centrifugations to discard up-layer tissue lipid in purity, were transferred to PVDF membranes treated with 5% fat-free milk powder to block the nonspecific IgGs (90 minutes, 100 V) and incubated for 1 hour with specific protein antibody. The blot was then incubated with anti-mouse or anti-goat IgG linked to alkaline phosphatase (1:1000) for 1 hour.

PPARγ = assay: HFD-induced PPARγ expression in liver; assay type: in vivo, mice
Protocol: as §1, with “In the experiment, C57BL/6J male mice (21-22 g), after fasting, were fed an HFD as a model of hyperlipidemia for 8 weeks. During” for “During”
as §2, §3

ROCK II = ROCK II expression in HepG2 cells; assay type: cell-based
Protocol: The HepG2 hepatoma cell line was purchased from the American Type Culture Collection (ATCC, Manassas, Va., U.S.A.). Cells were cultured in Dulbecco's Modified Eagle's Medium (DMEM). […] Then the targeted drugs solution was incubated with the cells for 24 hours, followed by protein extraction. […] HepG2 cells were treated with various concentrations of targeted drugs for 24 hours. Reactions were terminated by washing twice with cold PBS, and the cells were then harvested. Proteins in the whole-cell lysate were homogenized in an ice-cold lysis buffer and a protease inhibitor (Sigma-Aldrich, St. Louis, Mo., U.S.A.). The homogenate was centrifuged at 90,000×g for 15 minutes at 4° C., and supernatant was recovered as the total cellular protein. Cytosolic and membrane fractions of HepG2 cells were prepared using a CNM (Cytosol Nuclear Membrane) compartmental protein extraction kit (BioChain Institute Inc., Hayward, Calif., U.S.A.) according to the manufacturer's instructions. All of the fractionated protein solutions were stored at -80° C. until analysis. To measure the expression levels of proteins by drugs, the total cell protein was extracted after incubation with treatments for 24 hours and then Western blotting analysis was performed as described previously.

[1] = molecular target: T1, Human recombinant HMG CoA reductase (Homo sapiens, UniProt P04035); assay: HMG CoA reductase activity and [14C]mevalonate formation; assay type: biochemical
T1 construct: purchased Sigma-Aldrich H7039; host or cells: E. coli
Protocol: Human recombinant HMG CoA reductase expressed in E. coli (H7039, Sigma-Aldrich, MO, U.S.A.) was used. Human recombinant HMG-CoA reductase, examined by SDS-PAGE to be ≥90% in purity, 2-8 units/mg protein in activity and ˜76 kDa in molecular weight (H7039, Sigma-Aldrich, St. Louis, Mo. U.S.A.), was used for determining the formation of [^14C]mevalonate. KMUP-1 and targeted drugs were pre-incubated with 35 ng/ml enzyme in phosphate buffer pH 7.5 for 15 minutes at 37° C. The reaction was initiated by the addition of 2.5 μM [^14C]HMG-CoA for another 20 minutes incubation period and terminated by further addition of 1 N HCl. An aliquot was removed by column and counted to determine the amount of [^14C]mevalonate formed (Ricera® Co. Ltd., Taipei, Taiwan).

[2] = 10^−5 M, 24 hours, Control 100, Vehicle 88
[3] = Simva 5 mg/kg, CTL 100 (Table 9)

T1 sequence (P04035 426-888 limits assumed): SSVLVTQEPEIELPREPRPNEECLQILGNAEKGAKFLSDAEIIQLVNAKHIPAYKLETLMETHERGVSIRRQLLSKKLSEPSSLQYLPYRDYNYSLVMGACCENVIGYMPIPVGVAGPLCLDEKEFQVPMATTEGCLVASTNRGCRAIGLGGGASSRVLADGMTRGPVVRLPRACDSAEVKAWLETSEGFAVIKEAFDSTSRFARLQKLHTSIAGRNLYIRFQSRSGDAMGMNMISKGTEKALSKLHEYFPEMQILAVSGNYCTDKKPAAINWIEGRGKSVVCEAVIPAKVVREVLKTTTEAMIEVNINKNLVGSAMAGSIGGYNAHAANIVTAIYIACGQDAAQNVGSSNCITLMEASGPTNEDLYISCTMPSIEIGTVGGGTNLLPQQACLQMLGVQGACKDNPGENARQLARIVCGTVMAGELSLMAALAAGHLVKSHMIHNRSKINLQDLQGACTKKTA

Cn1c(=O)c2c(ncn2CCN2CCN(c3ccccc3Cl)CC2)n(C)c1=O [KMUP-1, 7-[2-[4-(2-chlorophenyl)piperazinyl]ethyl]-1,3-dimethylxanthine]
HDL cholesterol (mice fed with HFD; 2.5 mg/kg p.o.): 103.6 ± 4.2 mg/dL
LDL cholesterol (mice fed with HFD; 2.5 mg/kg p.o.): 14.2 ± 1.4 mg/dL
TG in serum (Triacylglycerol) (mice fed with HFD; 2.5 mg/kg p.o.): 74.5 ± 5.1 mg/dL
TG of liver (mice fed with HFD; 2.5 mg/kg p.o.): 28.4 ± 3.6 mg/dL
Tot. chol. (total cholesterol) (mice fed with HFD; 2.5 mg/kg p.o.): 133.0 ± 5.1 mg/dL
HDL cholesterol (mice fed with HFD; 5 mg/kg p.o.): 118.3 ± 5.7 mg/dL
LDL cholesterol (mice fed with HFD; 5 mg/kg p.o.): 14.2 ± 2.2 mg/dL
TG in serum (Triacylglycerol) (mice fed with HFD; 5 mg/kg p.o.): 72.7 ± 4.7 mg/dL
TG of liver (mice fed with HFD; 5 mg/kg p.o.): 26.12 ± 3.1 mg/dL
Tot. chol. (total cholesterol) (mice fed with HFD; 5 mg/kg p.o.): 125.5 ± 9.8 mg/dL
HDL chol. (mice fed with HFD; Dose 2.5 mg/kg (Table 2)): 103.6 ± 4.2 mg/dL
LDL chol. (mice fed with HFD; Dose 2.5 mg/kg (Table 2)): 14.2 ± 1.4 mg/dL
TG (mice fed with HFD; Dose 2.5 mg/kg (Table 2)): 74.5 ± 5.1 mg/dL
Tot. chol. (mice fed with HFD; Dose 2.5 mg/kg (Table 2)): 133 ± 5.1 mg/dL
HDL chol. (mice fed with HFD; Dose 5 mg/kg (Table 2)): 118.3 ± 5.7 mg/dL
LDL chol. (mice fed with HFD; Dose 5 mg/kg (Table 2)): 14.2 ± 2.2 mg/dL
TG (mice fed with HFD; Dose 5 mg/kg (Table 2)): 72.67 ± 4.7 mg/dL
Tot. chol. (mice fed with HFD; Dose 5 mg/kg (Table 2)): 125.5 ± 9.8 mg/dL
HFD-induced hypercholesterolemia (mice fed with HFD; supplementation): significantly improved
HMGR (HMG CoA reductase; HFD mice, 1 mg/kg, CTL 100): 43%
HMGR (HMG CoA reductase; HFD mice, 2.5 mg/kg, CTL 100): 150%
HMGR (HMG CoA reductase; HFD mice, 5 mg/kg, CTL 100): 140%
PPARγ (PPARγ; HFD mice, 1 mg/kg, CTL 100): 53%
PPARγ (PPARγ; HFD mice, 2.5 mg/kg, CTL 100): 249%
PPARγ (PPARγ; HFD mice, 5 mg/kg, CTL 100): 245%
ROCK II expression (ROCK II; [2]): 41
ROCKII (ROCK II; FPP (10 μM) + drug 10^−5 M): 60%
ROCKII (ROCK II; FPP (10 μM) + drug 10^−6 M): 80%
ROCKII (ROCK II; FPP (10 μM) + drug 10^−7 M): 88%
ROCKII (ROCK II; FPP (10 μM) + drug 10^−8 M): 86%
ROCKII (ROCK II; FPP (10 μM) + drug 10^−9 M): 84%
ROCKII (ROCK II; GGPP (10 μM) + drug 10^−5 M): 40%
ROCKII (ROCK II; GGPP (10 μM) + drug 10^−6 M): 60%
ROCKII (ROCK II; GGPP (10 μM) + drug 10^−7 M): 108%
ROCKII (ROCK II; GGPP (10 μM) + drug 10^−8 M): 120%
ROCKII (ROCK II; GGPP (10 μM) + drug 10^−9 M): 112%
ROCK II expression (ROCK II; Rp-8-pCPT-cGMPS + KMUP-1 (10 μM), Control 100): 170
[14C]mevalonate formation ([1]; 10 μM): could not reduce

CCC(C)(C)C(=O)O[C@H]1C[C@@H](C)C=C2C=C[C@H](C)[C@H](CC[C@@H]3C[C@@H](O)CC(=O)O3)[C@H]21 [Simva, Simvastatin, reference compound]
HDL chol. (mice fed with HFD; Dose 5 mg/kg (Table 2)): 108.4 ± 1.3 mg/dL
LDL chol. (mice fed with HFD; Dose 5 mg/kg (Table 2)): 17.3 ± 1.4 mg/dL
TG (mice fed with HFD; Dose 5 mg/kg (Table 2)): 81.2 ± 4.4 mg/dL
Tot. chol. (mice fed with HFD; Dose 5 mg/kg (Table 2)): 129.7 ± 1.4 mg/dL
HMGR (HMG CoA reductase; [3]): 100%
PPARγ (PPARγ; [3]): 280%
ROCK II expression (ROCK II; [2]): 45
ROCKII (ROCK II; GGPP (10 μM) + drug 10^−5 M): 210%
ROCKII (ROCK II; GGPP (10 μM) + drug 10^−6 M): 220%
ROCKII (ROCK II; GGPP (10 μM) + drug 10^−7 M): 200%
ROCKII (ROCK II; GGPP (10 μM) + drug 10^−8 M): 214%
ROCKII (ROCK II; GGPP (10 μM) + drug 10^−9 M): 210%
inhibition of [14C]mevalonate formation ([1]; compared to the vehicle group): 86.6±4.2%
